Results from patent US8791061B2, “Peptides for treating and preventing immune-related disorders, including treating and preventing infection by modulating innate immunity” (Soligenix, Inc., priority 2005, dated 2014).

Legend:
[1] = system: methicillin-resistant Staphlococcus aureus (MRSA strain ATCC 33591, UC6685); experiment: Enhancing the efficacy of antibiotic treatment, MRSA infection of CD-1 mice; type: in vivo; conditions: peptide 60 mg/kg IP 24 hours prior to infection, in combination with vancomycin s.c. 1 and 5 hours post-infection; relative to vehicle or antibiotic alone; 5 or 8 days
Experimental: Twenty-four hours prior to infection, peptide was administered at 60 mg/kg via IP injection to CD-1 mice (N=10 animals/group; FIG. 8A: male mice, FIG. 8B: female mice). Mice were then infected with methicillin-resistant Staphlococcus aureus (MRSA strain ATCC 33591 in FIG. 8A and UC6685 in FIG. 8B) via IP injection (1.5*10^7 in FIG. 8A and ˜4*10^5 in FIG. 8B). Vancomycin at the given dosage was administered twice subcutaneously 1 and 5 hours post-infection. Survival was monitored over 5 (FIG. 8A) or 8 (FIG. 8B) days.

DPPIV [2] = target: T1, DPPIV (Mus musculus, UniProt P28843); experiment: Comparative DPPIV dose response curves in whole ICR mouse blood; type: biochemical; conditions: 2 h at 37° C., different concentrations
T1 construct: The plasma was transferred to a 96-well assay plate for the DPPIV assay; from tissue; host or cells: pooled heparinized whole blood of ICR mice; plasma isolated after incubation
T1 sequence (P28843 37-760 limits assumed): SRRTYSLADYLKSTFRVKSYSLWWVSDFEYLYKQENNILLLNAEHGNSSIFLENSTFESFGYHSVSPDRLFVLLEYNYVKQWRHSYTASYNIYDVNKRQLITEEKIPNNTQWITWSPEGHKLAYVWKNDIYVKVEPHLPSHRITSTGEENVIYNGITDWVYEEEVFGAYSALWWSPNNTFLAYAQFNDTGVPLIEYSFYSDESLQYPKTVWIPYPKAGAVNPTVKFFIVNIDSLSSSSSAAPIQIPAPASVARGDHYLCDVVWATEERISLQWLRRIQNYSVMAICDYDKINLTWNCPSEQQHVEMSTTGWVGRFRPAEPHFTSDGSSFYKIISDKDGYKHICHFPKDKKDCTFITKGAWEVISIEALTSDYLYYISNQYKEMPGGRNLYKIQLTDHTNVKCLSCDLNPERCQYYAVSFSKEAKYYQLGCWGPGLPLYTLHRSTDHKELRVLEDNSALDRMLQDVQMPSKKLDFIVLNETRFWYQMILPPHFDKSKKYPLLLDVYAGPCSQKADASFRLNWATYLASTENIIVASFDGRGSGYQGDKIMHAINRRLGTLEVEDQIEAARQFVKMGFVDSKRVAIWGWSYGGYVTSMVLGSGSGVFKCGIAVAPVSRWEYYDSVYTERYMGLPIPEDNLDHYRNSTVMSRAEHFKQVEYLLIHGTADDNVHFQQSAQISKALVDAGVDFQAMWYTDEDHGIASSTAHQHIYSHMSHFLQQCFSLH
Experimental: Dose response of SEQ. ID. NO. 5 of the present invention and SEQ. ID NO. 7 in PCT/CA02/01830, filed Dec. 2, 2002 (KSRIVPAIPVSLL). Peptides were incubated at different concentrations with whole ICR mouse blood for 2 h at 37° C. Blood incubated with acetate buffered saline (20 mM) was used as a control. Following incubation, plasma was isolated by centrifugation for 10 minutes at 4000 rcf. The substrate Gly-Pro-p-nitroanilide (0.8 mM) was added to the plasma and the enzymatic rate of DPPIV was determined by monitoring the increase in UV absorbance of the product p-nitroaniline. […] ID. NO.

[3] = system: LPS stimulated cytokine response; experiment: Anti-inflammatory activity: ex vivo LPS stimulated cytokine response of PBMCs after in vivo peptide treatment; design: species or system mouse; conditions: 100 mg/kg intravenously, blood collected after 4 hours, PBMCs stimulated with LPS
Experimental: The effect of peptide treatment on the ex vivo LPS stimulated cytokine response was measured. In these studies, SEQ ID NO 5 was administered intravenously at 100 mg/kg and after 4 hours, blood was collected from each mouse. PBMCs were isolated and stimulated with LPS and the resulting cytokine levels were determined.

DPPIV [4] = target: T2, DPPIV (Homo sapiens, UniProt P27487); experiment: Plasma DPPIV activity assay with human blood; type: biochemical; conditions: 2 hours at 37° C., dose response
T2 construct: from tissue; host or cells: heparinized whole blood of human volunteer donors; plasma isolated after incubation
T2 sequence (P27487 39-766 limits assumed): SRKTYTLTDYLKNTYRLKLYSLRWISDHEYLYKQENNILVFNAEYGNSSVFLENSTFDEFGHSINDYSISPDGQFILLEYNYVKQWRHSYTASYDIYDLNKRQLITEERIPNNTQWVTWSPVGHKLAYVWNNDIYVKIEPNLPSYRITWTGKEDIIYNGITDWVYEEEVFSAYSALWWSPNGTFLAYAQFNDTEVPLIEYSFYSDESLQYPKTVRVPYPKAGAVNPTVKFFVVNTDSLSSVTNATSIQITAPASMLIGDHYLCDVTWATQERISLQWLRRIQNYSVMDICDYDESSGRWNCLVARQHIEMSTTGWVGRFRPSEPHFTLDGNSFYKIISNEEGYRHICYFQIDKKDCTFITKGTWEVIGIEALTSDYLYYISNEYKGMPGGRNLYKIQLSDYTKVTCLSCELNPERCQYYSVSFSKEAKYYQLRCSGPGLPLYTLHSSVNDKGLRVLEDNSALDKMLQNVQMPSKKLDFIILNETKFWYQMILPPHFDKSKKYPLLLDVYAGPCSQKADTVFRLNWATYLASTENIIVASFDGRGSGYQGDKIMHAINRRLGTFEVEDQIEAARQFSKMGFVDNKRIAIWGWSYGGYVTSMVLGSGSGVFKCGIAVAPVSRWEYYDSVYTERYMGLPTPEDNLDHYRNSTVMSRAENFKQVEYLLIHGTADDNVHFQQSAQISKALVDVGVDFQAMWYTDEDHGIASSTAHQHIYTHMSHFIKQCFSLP
Experimental: Human blood was obtained by qualified medical personnel from volunteer donors and collected in heparinized blood collection tubes. Blood was aliquoted into 300 μL aliquots. The peptides were dissolved in acetate buffered saline, pH 5.5. 30 μL of various concentrations were added to 300 μL of blood and mixed by resuspension (final concentration in blood as indicated in FIG. 6). For the control, 30 μL of blank acetate buffered saline was added to 300 μL of blood. Each concentration was prepared in triplicate, whereas the control was prepared in six replicates. The samples were incubated at 37° C. in closed microtubes for two hours. After incubation the plasma was isolated from the samples by centrifugation at 4000 rcf. The plasma was transferred to a 96-well assay plate for the DPPIV assay. The assay was started by adding 5 μL of the DPPIV substrate gly-pro-p-nitroanilide (16 mM in de-ionized water) to 95 μL of plasma (concentration in plasma 0.8 mM) and the increase in UV absorbance (405 nm) was monitored over a 20 min time period. The rate of the production of p-nitroaniline by enzymatic cleavage of gly-pro-p-nitroanilide was taken as the activity of DPPIV (Durinx C et al., (2001) “Reference values for plasma dipeptidyl-peptidase IV activity and their association with other laboratory parameters”. Clin Chem Lab Med. 39(2):155-9.)

Substance | survival [1] | DPPIV dose response (DPPIV [2]) | inflammatory response to LPS stimulation (cytokine levels) [3] | plasma DPPIV activity in human blood (DPPIV [4])
KSRIVP (IMMUNOLOGICAL PEPTIDE) [SEQ ID NO 1] | enhanced survival |  |  | 
KSRIVPAIPVSLL [ID NO; 7 in PCT/CA02/01830, filed Dec; 2, 2002, reference compound] |  | A similar dose response was absent |  | 
RIVPA [SEQ ID NO 5] | enhanced survival | larger decrease in DPPIV activity with increasing peptide concentration | decreased inflammatory response to LPS stimulation | comparable to that determined in mouse blood
